Assay results: publication PMC8140080, “The lexicon of antimicrobial peptides: a complete set of arginine and tryptophan sequences” (Communications Biology, 2021)
Where a SMILES comes first, the peptide text is derived from it.

What was measured:
S. aureus ATCC 6538 = type: cell-based, Staphylococcus aureus
Protocol: (§1) S. aureus ATCC 6538 and C. albicans ATCC 10231 were obtained from Oxoid (Basingstoke, UK), and P. aeruginosa PAO1 donated by the University of Nottingham. Bacteria were routinely grown using Mueller–Hinton broth or agar and yeast was grown using Sabaraud Dextrose broth or agar. Cultures were incubated aerobically on agar at 37 °C for 20 h or under the same conditions in broth with shaking at 200 rpm.
(§2) Planktonic cultures were obtained by inoculating single colonies from 18–20 h old agar cultures into 10 ml of sterile broth, followed by 20-h incubation. S. aureus and P. aeruginosa assays were performed using Mueller–Hinton broth and agar and C. albicans assays were performed using Sabaraud Dextrose broth and agar. […]
(§3) Peptide stock solutions of 800 µM were prepared by dissolving solid peptides (provided in pre-weighed aliquots by the supplier) in phosphate buffer solution (PBS) containing 5% (v/v) DMSO. […] Each polystyrene plate was then aerobically incubated at 37 °C for 18–20 h without shaking, before measuring OD600 using a spectrophotometer plate reader (Nanostar; BMG Labtech, Ayelsbury). […] The mean IC50 for each peptide was calculated from the results of four independent experiments, with a single technical replicate each. Specific activity was calculated by plotting IC50 (µM) multiplied by peptide length, against peptide length. […]

P. aeruginosa PAO1 = test: Antimicrobial assay (IC50 and MBC), broth microdilution; type: cell-based, Pseudomonas aeruginosa; conditions: Fig. 1a; range assayed 0.8-400 µM; b35 words are general, printed in the P. aeruginosa morphology study
Protocol: as §1, §2, §3

P. aeruginosa [1] = test: Scanning electron microscopy of peptide-treated bacteria; type: cell-based, Pseudomonas aeruginosa; conditions: 1 h, 37 °C, ~10^7 CFU/ml in PBS, three independent experiments
P. aeruginosa [2] = conditions: read-out: minimum IC50; cited from earlier work
Excerpt: (§4) A second general conclusion is that overall activity increases consistently with length. […] We previously reported variable activity in a group of cationic and hydrophobic AMPs based on apoE-derived AMPs, and a range of similar peptides we tested.

P. aeruginosa [3] = test: Atomic force microscopy of peptide-treated bacteria; type: cell-based, Pseudomonas aeruginosa; conditions: 100 µM peptide, 2 min exposure, 37 °C; n = 6 cells
Protocol: A suspension of P. aeruginosa at ~10^7 CFU/ml in PBS was prepared as for SEM; 500 μl of this suspension was incubated with 500 μl of […] peptide (200 μM in PBS; 5% v/v DMSO) at 37 °C with shaking at 200 rpm for 45 min. As a negative control, 500 μl bacterial suspension was incubated with PBS containing 5% v/v DMSO. Samples of 50 μl were withdrawn from the suspensions at 2, 15 and 45 min for imaging by AFM. Chips were prepared by adsorbing 50 μl of poly-L-lysine onto a cleaved mica chip for 3 min. Excess poly-L-lysine was washed off by adding 10 × 200 μl aliquots of MilliQ water and excess water was removed using filter paper. Test samples were deposited onto the chips and left to adhere for 1-2 min, before further washing using 10 × 200 μl aliquots of MilliQ water, blotting off excess with filter paper, before leaving chips to air-dry overnight. Chips were scanned using a Bruker multimode 8 (Bruker, Billerica, USA) in ScanAsyst air mode. All images were taken at a resolution of 512 points per dimension unless stated otherwise, and are representative of single technical experiments. Images obtained were processed and different length measurements were performed using Gwyddion version 2.48 (http://gwyddion.net/). Measurements were taken of the long axis length, short axis length and maximum vertical height of the bacterium above the chip surface. […]

S. aureus = conditions: read-out: minimum IC50; cited from earlier work
Excerpt: as §4

[4] = Transmission electron microscopy of peptide aggregates; type: physicochemical; conditions: single independent experiment
Protocol: Peptides were prepared at 800 µM in PBS with 5% v/v DMSO, and any excessively large aggregates or dust removed by centrifugation (2000 × g, 5 min). Further dilutions (80 µM) were prepared in PBS with 5% v/v DMSO, and the latter diluent was also used to prepare control (peptide-free) grids. Carbon film 200 mesh copper transmission electron microscope (TEM) grids (Agar Scientific Ltd. Stanstead, UK) were initially functionalized using a glow discharger (K100X; Quorum technologies Ltd. Laughton, UK) under a current of 25 mA for 30 sec. These were then placed onto 10 µl droplets of each test sample solution for 1 min, and then transferred onto 10 µl droplets of 1% w/v uranyl acetate for a further minute. Excess solution was removed using filter paper and sample grids were air dried for at least 1 h. Grids were imaged using a Tecnai™ T12 BioTwin TEM (FEI Company. Hillsboro, USA). Images were cropped and scale bars were added using ImageJ. Images are representative of single independent experiments.

CC(=O)N[C@@H](Cc1c[nH]c2ccccc12)C(=O)N[C@@H](Cc1c[nH]c2ccccc12)C(=O)N[C@@H](Cc1c[nH]c2ccccc12)C(=O)N[C@@H](CCCNC(=N)N)C(=O)N[C@@H](CCCNC(=N)N)C(=O)N[C@@H](CCCNC(=N)N)C(=O)N[C@@H](Cc1c[nH]c2ccccc12)C(N)=O [WWWRRRW] (Ac-WWWRRRW-NH2)
IC50 (S. aureus ATCC 6538; ATCC 6538): 2.9 ± 0.3 µM

RRRRRRR [C-terminal amidation and N-terminal acetylation carried out for all peptides]
inhibitory activity (in words) (P. aeruginosa PAO1): inactive | bacterial morphology by SEM (P. aeruginosa [1]; 80 µM peptide): no discernible change in morphology | bacterial morphology by SEM (P. aeruginosa [1]; 400 µM peptide): no discernible change in morphology

RRWYRWWR [Y-containing octapeptide similar to RWWRWWR, from the authors' earlier work]
IC50 (P. aeruginosa [2]): 21 µM

RWWRWWR [C-terminal amidation and N-terminal acetylation]
inhibitory activity (in words) (P. aeruginosa PAO1): one of the most active | bacterial morphology by SEM (P. aeruginosa [1]; 80 µM peptide): formation of spheroid objects on the surface of the bacteria, indicative of membrane blebbing | bacterial morphology by SEM (P. aeruginosa [1]; 400 µM peptide): dramatic reduction in the number of intact bacteria | bacterial height by AFM (P. aeruginosa [3]): doubled | mean bacterial width by AFM (P. aeruginosa [3]): decreased by a third | IC50 (S. aureus): 14 µM

WRKWRKRWWWRKWRKRWW [ApoEdpL-W, 18mer apoE-derived antimicrobial peptide composed of W, R and K, from the authors' earlier work]
IC50 (P. aeruginosa [2]): 7 µM

WRWWWWW [library heptapeptide forming substantial aggregates at 800 µM; C-terminal amidation and N-terminal acetylation]
visible aggregates by TEM ([4]; 80 µM in PBS with 5% v/v DMSO): not | visible aggregates by TEM ([4]; 800 µM in PBS with 5% v/v DMSO): Substantial visible aggregates were present

WWWRRRR [library heptapeptide of W and R; C-terminal amidation and N-terminal acetylation carried out for all peptides]
increase of IC50 relative to WWWRRRW (S. aureus ATCC 6538; one residue changed, organism not given): 65 fold
